In brackets after ≈: the same amount, converted by molar mass.
Experiments:
Enterococcus faecium = test: In vitro antibacterial activity against Enterococcus faecium A 24885.; assay type: functional; settings: Enterococcus faecium; read-out: MIC
Klebsiella pneumoniae [1] = test: (§1) In vivo potency on systemic infection caused by after oral administration to mice expressed as median protective dose.; assay type: functional; settings: read-out: PD50
Escherichia coli [2] = test: as §1; assay type: functional; settings: read-out: PD50
Pseudomonas aeruginosa [3] = test: as §1; assay type: functional; settings: read-out: PD50
Pseudomonas aeruginosa [4] = test: In vitro antibacterial activity against Pseudomonas aeruginosa A 9243.; assay type: functional; settings: Pseudomonas aeruginosa; read-out: MIC
Staphylococcus aureus [5] = test: animal or person; settings: in Mus musculus, po, read-out: PD50
Description: In vivo potency on systemic infection caused by Staphylococcus aureus A9537 after oral administration to mice expressed as median protective dose.

Enterobacter cloacae = test: In vitro antibacterial activity against Enterobacter cloacae A 9656.; assay type: functional; settings: Enterobacter cloacae; read-out: MIC
Enterococcus faecalis = test: In vitro antibacterial activity against Enterococcus faecalis A9809.; assay type: functional; settings: Enterococcus faecalis; read-out: MIC
Serratia marcescens = test: In vitro antibacterial activity against Serratia marcescens A 20019.; assay type: functional; settings: Serratia marcescens; read-out: MIC
Staphylococcus aureus [6] = test: In vitro antibacterial activity against Staphylococcus aureus A9537.; assay type: functional; settings: Staphylococcus aureus; read-out: MIC
Escherichia coli [7] = test: In vitro antibacterial activity against Escherichia coli A 15119.; assay type: functional; settings: Escherichia coli; read-out: MIC
Morganella morganii = test: In vitro antibacterial activity against Morganella morganii A 15153.; assay type: functional; settings: Morganella morganii; read-out: MIC
Klebsiella pneumoniae [8] = test: In vitro antibacterial activity against Klebsiella pneumoniae A 9664.; assay type: functional; settings: Klebsiella pneumoniae; read-out: MIC
Escherichia coli [9] = test: In vivo potency on systemic infection caused by Escherichia coli A 15119 after oral administration to mice expressed as median protective dose.; assay type: functional; settings: read-out: PD50
Klebsiella pneumoniae [10] = test: In vivo potency on systemic infection caused by Klebsiella pneumoniae A 9664 after oral administration to mice expressed as median protective dose.; assay type: functional; settings: read-out: PD50
Klebsiella pneumoniae [11] = test: In vivo potency on systemic infection caused by after oral administration to mice expressed as median protective dose perorally; assay type: functional; settings: read-out: PD50

Structure (SMILES)	MIC (Enterococcus faecium) [µg/mL]	MIC (Pseudomonas aeruginosa [4]) [µg/mL]	MIC (Enterobacter cloacae) [µg/mL]	MIC (Enterococcus faecalis) [µg/mL]	MIC (Serratia marcescens) [µg/mL]	MIC (Staphylococcus aureus [6]) [µg/mL]	MIC (Escherichia coli [7]) [µg/mL]	MIC (Morganella morganii) [µg/mL]	MIC (Klebsiella pneumoniae [8]) [µg/mL]	ED50 (Klebsiella pneumoniae [1]) [mg/kg]	ED50 (Escherichia coli [2]) [mg/kg]	ED50 (Pseudomonas aeruginosa [3]) [mg/kg]	ED50 (Staphylococcus aureus [5]) [mg/kg]	ED50 (Escherichia coli [9]) [mg/kg]	ED50 (Klebsiella pneumoniae [10]) [mg/kg]	ED50 (Klebsiella pneumoniae [11]) [mg/kg]
C[C@H]1CN(c2nc3c(cc2F)c(=O)c(C(=O)O)cn3C(C)(C)C)C[C@H]1N	1 (≈ 2.76 µM)	1 (≈ 2.76 µM)	0.13 (≈ 0.359 µM)	0.25 (≈ 0.69 µM)	0.13 (≈ 0.359 µM)	0.008 (≈ 0.0221 µM)	0.016 (≈ 0.0441 µM)	0.13 (≈ 0.359 µM)	0.5 (≈ 1.38 µM)	3.9	1.4	4.7	1	–	–	–
C[C@H]1CN(c2nc3c(cc2F)c(=O)c(C(=O)O)cn3C(C)(C)C)C[C@@H]1N	4 (≈ 11 µM)	2 (≈ 5.52 µM)	0.03 (≈ 0.0828 µM)	0.25 (≈ 0.69 µM)	0.5 (≈ 1.38 µM)	0.015 (≈ 0.0414 µM)	0.06 (≈ 0.166 µM)	0.25 (≈ 0.69 µM)	0.25 (≈ 0.69 µM)	–	–	–	–	–	–	–
CC(C)(C)n1cc(C(=O)O)c(=O)c2cc(F)c(N3CC[C@H](N)C3)nc21	0.5 (≈ 1.44 µM)	0.13 (≈ 0.373 µM)	0.13 (≈ 0.373 µM)	0.03 (≈ 0.0861 µM)	0.13 (≈ 0.373 µM)	0.0005 (≈ 0.00144 µM)	0.015 (≈ 0.0431 µM)	0.13 (≈ 0.373 µM)	0.03 (≈ 0.0861 µM)	–	–	–	–	1.2	3.5	–
C[C@@H]1CN(c2nc3c(cc2F)c(=O)c(C(=O)O)cn3C(C)(C)C)C[C@H]1N	0.5 (≈ 1.38 µM)	0.5 (≈ 1.38 µM)	0.016 (≈ 0.0441 µM)	0.06 (≈ 0.166 µM)	0.25 (≈ 0.69 µM)	0.002 (≈ 0.00552 µM)	0.016 (≈ 0.0441 µM)	0.25 (≈ 0.69 µM)	0.03 (≈ 0.0828 µM)	–	2.1	5.5	1.2	–	–	0.81
C[C@H]1C[C@@H](N)CN1c1nc2c(cc1F)c(=O)c(C(=O)O)cn2C(C)(C)C	2 (≈ 5.52 µM)	2 (≈ 5.52 µM)	0.03 (≈ 0.0828 µM)	0.25 (≈ 0.69 µM)	0.5 (≈ 1.38 µM)	0.015 (≈ 0.0414 µM)	0.03 (≈ 0.0828 µM)	0.5 (≈ 1.38 µM)	0.06 (≈ 0.166 µM)	–	–	–	–	–	–	–
C[C@@H]1C[C@H](N)CN1c1nc2c(cc1F)c(=O)c(C(=O)O)cn2C(C)(C)C	2 (≈ 5.52 µM)	8 (≈ 22.1 µM)	0.25 (≈ 0.69 µM)	0.5 (≈ 1.38 µM)	2 (≈ 5.52 µM)	0.13 (≈ 0.359 µM)	0.25 (≈ 0.69 µM)	2 (≈ 5.52 µM)	0.25 (≈ 0.69 µM)	–	–	–	–	–	–	–

More lines, main results first:

MIC (Enterococcus faecium) [µg/mL]	MIC (Pseudomonas aeruginosa [4]) [µg/mL]	MIC (Enterobacter cloacae) [µg/mL]	MIC (Enterococcus faecalis) [µg/mL]	MIC (Serratia marcescens) [µg/mL]	MIC (Staphylococcus aureus [6]) [µg/mL]	MIC (Escherichia coli [7]) [µg/mL]	MIC (Morganella morganii) [µg/mL]	MIC (Klebsiella pneumoniae [8]) [µg/mL]	Structure (SMILES)	ED50 (Klebsiella pneumoniae [1]) [mg/kg]	ED50 (Escherichia coli [2]) [mg/kg]	ED50 (Pseudomonas aeruginosa [3]) [mg/kg]	ED50 (Staphylococcus aureus [5]) [mg/kg]	ED50 (Escherichia coli [9]) [mg/kg]	ED50 (Klebsiella pneumoniae [10]) [mg/kg]	ED50 (Klebsiella pneumoniae [11]) [mg/kg]
4 (≈ 11 µM)	1 (≈ 2.76 µM)	0.03 (≈ 0.0828 µM)	0.5 (≈ 1.38 µM)	0.5 (≈ 1.38 µM)	0.015 (≈ 0.0414 µM)	0.13 (≈ 0.359 µM)	0.5 (≈ 1.38 µM)	0.06 (≈ 0.166 µM)	C[C@@H]1CN(c2nc3c(cc2F)c(=O)c(C(=O)O)cn3C(C)(C)C)C[C@@H]1N	–	–	–	–	–	–	–
2 (≈ 5.31 µM)	2 (≈ 5.31 µM)	0.03 (≈ 0.0797 µM)	0.25 (≈ 0.664 µM)	0.5 (≈ 1.33 µM)	0.015 (≈ 0.0398 µM)	0.06 (≈ 0.159 µM)	0.5 (≈ 1.33 µM)	0.13 (≈ 0.345 µM)	CC1(C)CN(c2nc3c(cc2F)c(=O)c(C(=O)O)cn3C(C)(C)C)C[C@H]1N	–	–	–	–	–	–	–
